Data published in patent publication US20040102360A1, “Combination therapy” (priority 2002, published 2004).

Key:
MDA-MB468 cells = assay: Caspase 3 activation apoptosis assay in MDA-MB468 cells; assay type: cell-based, human; conditions: FIG. 6 (a)
Experimental: (§1) The herein disclosed inhibitors were evaluated as to the ability to increase cell death. Inhibitors of Akt and inhibitors of Akt and a protein kinase were assessed alone and in combination to determine the effect on caspase 3 activation.
(§2) Apoptosis Assay: Caspase 3 Activation
(§3) Cells were seeded in 96 well plates at concentrations ranging from 2×10^3 to 1×10^4 cells per well in their respective growth media. For anchorage independent assays (spheroids) cells were plated in 96 well plates that had been coated with poly-heme(poly 2-hydroxyethylmethacrylate [Sigma] 10 mg/ml in 95% ethanol). 72 hours later caspase 3 assays were set up as follows:
(§4) a. For standard combination assays, compounds were added at respective concentrations indicated and plates incubated at 37° C. in a CO2 incubator for 18 hours. For standard combination assays utilizing treatment with camptothecin, compounds and camptothecin were added at the same time at the respective concentrations indicated.
(§5) b. For combinations involving addition of the death receptor ligand TRAIL/Apo2L (Research Diagnostics) compounds were added for 1.5 hours prior to addition of TRAIL and plates incubated an additional 3 to 4 hours post TRAIL addition. In the case of the time course, plates were incubated for 2, 3, 4, 5, 6 and 7 hrs with Trail ligand before ending the assay. […]

LnCaP cells = assay: Caspase 3 activation apoptosis assay in LnCaP cells; assay type: cell-based, human
Experimental: as §1, §2, §3, §4, §5

LnCaP/Akt3 cell line = assay: Caspase 3 activation apoptosis assay in LnCaP/Akt3 cells; assay type: cell-based, human; conditions: FIG. 4 (b)
Experimental: as §1, §2, §3, §4, §5

Akt1, Akt2 and Akt3 = assay: Akt kinase assays (HTRF, GSK-derived biotinylated peptide substrate); assay type: biochemical, human; conditions: as characterised in the figure legends
Experimental: Activated AKT isoforms and pleckstrin homology domain deletion constructs were assayed utilizing a GSK-derived biotinylated peptide substrate. The extent of peptide phosphorylation was determined by Homogeneous Time Resolved Fluorescence (HTRF) using a lanthamide chelate (Lance)-coupled monoclonal antibody specific for the phosphopeptide in combination with a streptavidin-linked allophycocyanin (SA-APC) fluorophore which will bind to the biotin moiety on the peptide. When the Lance and APC are in proximity (i.e. bound to the same phosphopeptide molecule), a non-radiative energy transfer takes place from the Lance to the APC, followed by emission of light from APC at 665 nm.
The reaction is assembled by adding 16 TL of the ATP/MgCl2 working solution to the appropriate wells of a 96-well microtiter plate. Inhibitor or vehicle (1.0 Tl) is added followed by 10 Tl of peptide working solution. The reaction is started by adding 13 Tl of the enzyme working solution and mixing. The reaction is allowed to proceed for 50 min and then stopped by the addition of 60 Tl HTRF quench buffer. The stopped reactions were incubated at room temperature for at least 30 min and then read on the Discovery instrument.

MCF7 cells = assay: Caspase 3 activation apoptosis assay in MCF7 cells; assay type: cell-based, human; conditions: co-treatment with Camptothecin, FIG. 3
Experimental: as §1, §2, §3, §4, §5

Compound | Caspase 3 activity in the presence of Trail (MDA-MB468 cells) | Caspase 3 activity in the presence of Trail (LnCaP cells; FIG. 4 (a)) | Caspase 3 activity in the presence of Trail (LnCaP/Akt3 cell line) | Akt isoform selectivity (Akt1, Akt2 and Akt3) | fold increase in Caspase 3 activation over Camptothecin alone (MCF7 cells) [fold] | fold increase in Caspase 3 activation over Trail alone (LnCaP cells; + TRAIL ligand, FIG. 1) [fold]
CN(C)CC(C)(C)CNc1nn2c(-c3ccccc3)nnc2cc1C1CCC1 [Compound 1, N′-(7-Cyclobutyl-3-phenyl-[1,2,4]triazolo[4,3-b]pyridazin-6-yl)-2,2,N,N-tetramethyl-propane-1,3-diamine] | increase in Caspase 3 activity | increase in Caspase 3 activity | increase in Caspase 3 activity | selective Akt1 inhibitor |  | 
O=c1[nH]c2ccccc2n1C1CCN(Cc2ccc(-c3nc4cc5nc[nH]c5cc4nc3-c3ccccc3)cc2)CC1 [Compound 12-5, 1-{1-[4-(7-Phenyl-1H-imidazo[4,5-g]quinoxalin-6-yl)benzyl]piperidin-4-yl}-1,3-dihydro-2H-benzimidazol-2-one] |  |  |  | selective Akt1 and Akt2 inhibitor | 5.8 | 
NC(=O)c1[nH]c2ccc(Br)cc2c1S(=O)(=O)N1CCOCC1 [Compound A] |  |  |  |  | 8.7 | 1.2
